Experimental data: patent US20120101160A1, “Use of chemical chaperones to treat glaucoma caused by misfolded or misprocessed proteins” (Alcon, Inc., priority 2004, published 2012)

Assays:
mutant (Q368X) myocilin = molecular target: T1, mutant (Q368X) myocilin (Homo sapiens, UniProt Q99972); assay: secretion of mutant myocilin in cultured CHO cells (Western blot of media and lysates); type: cell-based; conditions: CHO stable transfectants expressing Q368X myocilin; overnight incubation with chemical chaperone; glycerol 10%; E and I lanes; FIG. 1/FIG. 2
T1 construct: expressed in transfected cells
T1 sequence (Q99972 33-367 limits assumed): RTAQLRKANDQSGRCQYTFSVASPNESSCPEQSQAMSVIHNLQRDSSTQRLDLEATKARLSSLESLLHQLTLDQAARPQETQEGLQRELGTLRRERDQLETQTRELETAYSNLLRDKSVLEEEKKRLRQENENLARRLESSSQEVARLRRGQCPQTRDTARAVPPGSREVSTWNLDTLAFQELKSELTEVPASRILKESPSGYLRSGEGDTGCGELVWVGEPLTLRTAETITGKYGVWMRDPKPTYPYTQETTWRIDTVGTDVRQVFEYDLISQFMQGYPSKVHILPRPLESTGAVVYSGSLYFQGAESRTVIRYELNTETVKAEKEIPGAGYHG
From the text: (§1) Wild-type myocilin is normally expressed and secreted from the human TM, whereas mutant disease-causing myocilin is retained intracellularly (Jacobson, Andrews et al. 2001). […] We tested several compounds for their ability to effect secretion of mutant myocilin in cultured CHO cells that were engineered for their ability to express, but not secrete, mutant (Y437H or Q368X) myocilin. Plasmids expressing wild-type or mutant myocilin were generated as described (Jacobson, Andrews et al. 2001).
(§2) CHO stable transfectants were grown in F12K media containing 10% FBS supplemented with penicillin-streptomycin-glutamine. Stable transfectants were generated by transfection with lipofectamine plus (Invitrogen) followed by limiting dilution plating and selection in G-418 (600 ug/ml). CHO cells were incubated with serum-free media 24 h post-transfection and media or cell lysates were collected after overnight incubation with the chemical chaperone. Equivalent cell lysate protein amounts (5 ug) were loaded for SDS-PAGE analysis. Cell media was not concentrated and was loaded at 16 ul per lane for SDS-PAGE/Western blot analysis.
(§3) Cells were rinsed with PBS and solubilized in a commercial mammalian extraction buffer (M-Per™; Pierce, Rockford, Ill.) supplemented with a protease inhibitor cocktail (Complete, EDTA-free; Boehringer Mannheim, Indianapolis, Ind.) followed by centrifugation at 12,000×g for 5 min. Protein concentration of the supernatant was determined with Coomasie Plus Protein Assay Reagent (Pierce). Cell extracts were stored at −20° C.
(§4) Cell media or extracts were analyzed using pre-cast NuPAGE polyacrylamide gels and the Novex gel electrophoresis system (Novex, San Diego, Calif.). Proteins were electroblotted to Hybond-P PVDF membranes (Amersham Pharmacia Biotech, Piscataway, N.J.), blocked with gelatin, and probed with affinity purified rabbit anti-MYOC antibody 129 (generated to myocilin peptide 156-171) (Jacobson, Andrews et al. 2001) and an anti-rabbit IgG secondary antibody (Amersham). Immunoreactivity was detected with the ECL Plus detection system (Amersham). Blots were exposed to BioMax MR film (Eastman Kodak, Rochester, N.Y.) and scanned with a Hewlett-Packard ScanJet ADF scanner (Hewlett Packard, Boise, Id.) for figure presentation.

mutant (Y437H) myocilin = molecular target: T2, mutant (Y437H) myocilin (Homo sapiens, UniProt Q99972, Y437H); assay: as above; type: cell-based; conditions: CHO stable transfectants expressing Y437H myocilin; overnight incubation with chemical chaperone; glycerol 10%; E lane; FIG. 1/FIG. 2
T2 construct: expressed in transfected cells
T2 sequence (Q99972 33-504 Y437H): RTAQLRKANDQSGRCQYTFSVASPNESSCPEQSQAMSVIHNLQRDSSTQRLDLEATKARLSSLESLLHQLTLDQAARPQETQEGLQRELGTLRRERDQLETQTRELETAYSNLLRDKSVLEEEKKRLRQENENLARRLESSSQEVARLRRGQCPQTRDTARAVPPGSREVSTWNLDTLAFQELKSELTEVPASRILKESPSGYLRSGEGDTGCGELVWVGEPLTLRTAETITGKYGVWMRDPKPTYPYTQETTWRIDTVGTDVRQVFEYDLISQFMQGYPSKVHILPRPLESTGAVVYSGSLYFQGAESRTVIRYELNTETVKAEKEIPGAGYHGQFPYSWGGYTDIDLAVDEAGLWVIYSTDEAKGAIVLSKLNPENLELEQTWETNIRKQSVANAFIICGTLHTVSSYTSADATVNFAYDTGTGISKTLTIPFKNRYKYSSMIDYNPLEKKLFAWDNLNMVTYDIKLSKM
From the text: as §1, §2, §3, §4

[1] = molecular target: ΔF508 cystic fibrosis transmembrane conductance regulator protein (CFTR) (Homo sapiens, UniProt P13569, DEL508-508); conditions: cells expressing ΔF508 CFTR; similar to cells expressing the wild-type CFTR protein; cited from earlier work
ΔF508 cystic fibrosis transmembrane conductance regulator protein (CFTR), sequence (P13569 with tags, fused parts or gaps DEL508-508): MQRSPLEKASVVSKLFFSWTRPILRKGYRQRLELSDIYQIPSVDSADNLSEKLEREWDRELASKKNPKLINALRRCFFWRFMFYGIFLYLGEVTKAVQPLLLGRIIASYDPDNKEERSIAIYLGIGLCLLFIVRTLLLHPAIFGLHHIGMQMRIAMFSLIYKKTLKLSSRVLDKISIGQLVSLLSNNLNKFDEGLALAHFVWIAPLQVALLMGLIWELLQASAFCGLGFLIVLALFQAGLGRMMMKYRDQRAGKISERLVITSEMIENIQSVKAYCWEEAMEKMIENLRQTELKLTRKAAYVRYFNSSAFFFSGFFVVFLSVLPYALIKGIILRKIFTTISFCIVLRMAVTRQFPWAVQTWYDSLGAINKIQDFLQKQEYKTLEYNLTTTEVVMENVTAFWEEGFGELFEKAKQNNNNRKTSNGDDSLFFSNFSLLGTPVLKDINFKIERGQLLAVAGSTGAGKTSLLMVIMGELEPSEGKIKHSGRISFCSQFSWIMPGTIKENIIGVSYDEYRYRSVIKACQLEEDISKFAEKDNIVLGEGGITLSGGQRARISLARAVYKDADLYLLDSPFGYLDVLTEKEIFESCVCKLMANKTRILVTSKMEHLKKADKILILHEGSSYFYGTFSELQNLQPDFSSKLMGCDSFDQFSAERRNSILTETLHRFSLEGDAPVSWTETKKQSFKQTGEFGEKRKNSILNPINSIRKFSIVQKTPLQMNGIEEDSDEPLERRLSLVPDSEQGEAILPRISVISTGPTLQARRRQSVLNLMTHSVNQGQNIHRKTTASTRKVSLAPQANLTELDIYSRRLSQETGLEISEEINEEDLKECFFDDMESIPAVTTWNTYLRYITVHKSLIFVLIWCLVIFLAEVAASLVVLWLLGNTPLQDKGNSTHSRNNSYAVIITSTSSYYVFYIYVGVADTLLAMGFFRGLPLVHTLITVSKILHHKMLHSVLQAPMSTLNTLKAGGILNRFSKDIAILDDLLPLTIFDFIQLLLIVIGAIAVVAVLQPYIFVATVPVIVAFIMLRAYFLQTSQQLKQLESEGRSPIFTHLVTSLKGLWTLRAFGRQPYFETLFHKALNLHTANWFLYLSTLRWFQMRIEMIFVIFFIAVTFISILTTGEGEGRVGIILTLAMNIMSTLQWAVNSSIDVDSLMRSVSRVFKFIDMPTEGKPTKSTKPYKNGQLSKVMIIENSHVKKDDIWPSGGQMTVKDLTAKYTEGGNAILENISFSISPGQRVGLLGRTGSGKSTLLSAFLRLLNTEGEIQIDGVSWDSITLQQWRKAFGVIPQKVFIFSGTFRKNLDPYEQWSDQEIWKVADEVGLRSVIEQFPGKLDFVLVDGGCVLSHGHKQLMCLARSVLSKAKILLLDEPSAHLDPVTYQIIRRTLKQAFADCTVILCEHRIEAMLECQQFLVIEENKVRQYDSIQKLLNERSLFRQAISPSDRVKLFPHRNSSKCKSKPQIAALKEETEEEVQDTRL

Row | Compound | ability to effect secretion of mutant myocilin (mutant (Q368X) myocilin) | ability to effect secretion of mutant myocilin (mutant (Y437H) myocilin) | restoration of forskolin-dependent chloride transport [1]
1 | Gentamycin | did not effect secretion of mutant myocilin | did not effect secretion of mutant myocilin | –
2 | C[N+](C)(C)[O-] [trimethylamine N-oxide] | – | – | restored the ability of the mutant cells to exhibit forskolin-dependent chloride transport
3 | [2H]O[2H] [deuterated water] | – | – | restored the ability of the mutant cells to exhibit forskolin-dependent chloride transport
4 | OCC(O)CO [Glycerol, glycerol] | able to effect full-length myocilin secretion | able to effect full-length myocilin secretion | restored the ability of the mutant cells to exhibit forskolin-dependent chloride transport
